# Tests used:
# [1] = test system: patients of solid cancers; assay: Phase I-equivalent test in cancer patients, once every three weeks: 24-hour continuous vs rapid intravenous administration, neurotoxicity occurrence and therapeutic effect (RECIST); assay type: in vivo, human
# Experimental: A group of cancer patients was repeatedly subjected to a course including a 24-hour continuous intravenous administration once every three weeks at a dose of 2.80 to 8.56 mg/m^2 as reduced to ECyd for each administration. Another group of cancer patients was repeatedly subjected to a course including a rapid intravenous administration once every three weeks at a dose of 2.81 to 9.46 mg/m^2 as reduced to ECyd. In both cases, the neurotoxicity occurrence and the therapeutic effect by ECyd were investigated.
# (§1) The above test is equivalent to the phase I clinical trial, which is performed mainly for evaluating safety of the tested drug and determining the recommended dose (RD) of the drug, which ensures safety of the drug without adverse effects in the phase II clinical trial carried out with respect to the target cancer. The test is carried out for patients of solid cancers (e.g., gastrointestinal cancers, head and neck cancer, and breast cancer) which cannot be cured by a standard therapeutic method or to which no effective method is applicable. When the test is performed, if possible, the therapeutic effect on the target tumor is assessed. In the following examples, the therapeutic effect on the target tumor was assessed in accordance with the RECIST method (see Journal of the National Cancer Institute, 2000, Vol. 92, No. 3, p. 205 to 216). The effect of ECyd on shrinkage of the tumor was confirmed generally from a target lesion (a lesion having a size equal to or greater than the measurable size depending on the slice width obtained through CT or similar means) and the non-target lesions (all lesions other than the target lesion). […] PD (progressive disease) refers to a state in which the sum of the longer diameters of target lesions was increased by 20% or more as compared with the minimum sum of the longer diameters recorded after start of the test, or a state in which clear exacerbation in the non-target lesions or a new lesion was observed. SD (stable disease) refers to a state in which the degree of tumor shrinkage cannot be evaluated as PR and which cannot be evaluated as PD, and in which the tumor progress has stopped and no exacerbation was observed. MR (minor response) refers to a case in which a certain tumor shrinkage degree of about 15% was maintained (although it was less than 30%), or in which a therapeutic effect corresponding to PR is temporarily observed.
# [2] = test system: patients of solid cancers; assay: Test in cancer patients, 4-hour continuous vs rapid intravenous administration, neurotoxicity occurrence and therapeutic effect; assay type: in vivo, human
# Experimental: as §1
# A course including a 4-hour continuous intravenous administration once every three weeks out of a continuous four-week period at a dose of 1.30 mg/m^2 as reduced to ECyd for each administration was repeatedly performed. Also, a course including a rapid intravenous administration once every three weeks out of a continuous four-week period at a dose of 1.32 mg/m^2 as reduced to ECyd was repeatedly performed. In both cases, the neurotoxicity occurrence and the therapeutic effect by ECyd were investigated. In Example 2, selection of the patients and the method and ratings of evaluation were the same as employed in Example 1.
# [3] = test system: neural-crest-derived rat adrenal medulla chromaffin cells (PC12 strain); assay: Effect of ECyd contact schedule on growth inhibition of PC12 cells (Crystal Violet staining, constant AUC); assay type: cell-based; conditions: for growth of PC12 cells after ECyd contact: constant AUC
# Experimental: The effects of the ECyd contact schedule on growth inhibition of neural-crest-derived rat adrenal medulla chromaffin cells (PC12 strain) were investigated.
# (§2) The experiment of Example 3 was performed at a constant AUC (product of contact time and ECyd concentration). Specifically, in each tested regimen, AUC was maintained at such a level that the ECyd concentration was adjusted to provide IC80 (0.08 μM) as a result of contact between ECyd and the PC12 cells for 100 hours. In each tested regimen, PC12 cells were seeded on a plate and treated with ECyd. Subsequently, the cell culture liquid was exchanged. The profile of cell growth thereafter was obtained through staining with Crystal Violet.
# [4] = test system: cancer patients; conditions: rapid intravenous injection, once every three weeks or once a week for three weeks and one week rest; cited from earlier work
# [5] = test system: human lung tumor cells (A549 strain); assay: Effect of ECyd contact schedule on growth inhibition of A549 cells (Crystal Violet staining, constant AUC); assay type: cell-based
# Experimental: The effects of the ECyd contact schedule on growth inhibition of human lung tumor cells (A549 strain) were investigated.
# as §2, with “4” for “3”, “A549” for “PC12”
# [6] = rapid intravenous administration once every three weeks, 6.31 mg/m^2
smiles,measurement,setting,value
"C#C[C@@]1(O)[C@@H](CO)O[C@@H](n2ccc(N)nc2=O)[C@@H]1O [ECyd, 1-(3-C-Ethynyl-β-D-ribopentofuranosyl)cytosine]",peripheral neurotoxicity,"[1]; 24-hour continuous intravenous administration once every three weeks, 2.80 mg/m^2 to 5.48 mg/m^2",no peripheral neurotoxicity was observed
same,therapeutic effect,"[1]; rapid intravenous administration once every three weeks, 2.81 mg/m^2",no therapeutic effect was observed
same,cases exhibiting peripheral neurotoxicity,"[1]; rapid intravenous administration once every three weeks, 2.81 mg/m^2, two of the three cases",66%
same,cases exhibiting peripheral neurotoxicity,[1]; [6],two of the three cases
same,therapeutic efficacy (SD or higher),[1]; [6],two of the three cases
same,therapeutic efficacy (SD or higher),"[2]; 4-hour continuous intravenous administration, 1.30 mg/m^2",66%
same,cases exhibiting peripheral neurotoxicity,"[2]; 4-hour continuous intravenous administration, 1.30 mg/m^2, one of the three cases",33%
same,therapeutic efficacy (SD or higher),"[2]; rapid intravenous administration, 1.32 mg/m^2",no therapeutic efficacy (SD or higher) was observed
same,cases exhibiting peripheral neurotoxicity,"[2]; rapid intravenous administration, 1.32 mg/m^2, one of the three cases",33%
same,IC80,"[3]; Rattus norvegicus, PC-12, PC12 cells, contact for 100 hours",80 nM
same,growth of PC12 cells after ECyd contact,"[3]; contact time of 0.5 hours, day 6",virtually unrestored
same,growth of PC12 cells after ECyd contact,[3]; contact times of 25 and 100 hours,restored
same,dose-limiting toxicity,[4],peripheral neurotoxicity was observed as a dose-limiting toxicity
same,IC80,"[5]; Homo sapiens, A549 cells, contact for 100 hours",80 nM
same,growth of A549 cells after ECyd contact,"[5]; contact times of 0.5 to 100 hours, constant AUC, day 6",virtually unrestored

# Reference: US8642572B2, “Cytidine derivative-containing antitumor agent for continuous intravenous administration” (Taiho Pharmaceutical Co., Ltd., priority 2007, dated 2014)
